Laboratory results taken from ChEMBL document CHEMBL4765480 (J Med Chem, 2021).
Values after ≈ are worked out from the molar mass of the structure shown.

Assays:
[1] = Stability in human liver microsomes assessed as parent compound remaining after 10 mins; assay type: ADME, Microsome; conditions: read-out: Stabilty
[2] = AUC (0 to 24 hrs) in mouse at 10 mg/kg, po; assay type: ADME, organism-based; parameters: time < 24 hr, route oral, dose 10 mg/kg; conditions: in vivo
[3] = Volume of distribution at steady state in mouse at 10 mg/kg, po; assay type: ADME, organism-based; conditions: in vivo
[4] = Stability in rat liver microsomes assessed as parent compound remaining after 10 mins; assay type: ADME, Microsome; conditions: read-out: Stabilty
[5] = Cmax in mouse at 10 mg/kg, po; assay type: ADME, organism-based; parameters: route oral, dose 10 mg/kg; conditions: in vivo
[6] = Oral bioavailability in mouse at 10 mg/kg; assay type: ADME, organism-based; conditions: in vivo
[7] = Stability in mouse liver microsomes assessed as parent compound remaining after 10 mins; assay type: ADME, Microsome; conditions: read-out: Stabilty
[8] = Clearance in mouse at 10 mg/kg, po; assay type: ADME, organism-based; conditions: in vivo
[9] = Aqueous solubility of compound at pH 6.5; assay type: physicochemical; conditions: aqueous solution
[10] = Volume of distribution at steady state in cynomolgus monkey at 7 mg/kg, po; assay type: ADME, organism-based, Macaca fascicularis; conditions: in vivo
[11] = Cmax in cynomolgus monkey at 7 mg/kg, po; assay type: ADME, organism-based, Macaca fascicularis; parameters: route oral, dose 7 mg/kg; conditions: in vivo
[12] = Half life in mouse liver microsomes; assay type: ADME, Microsome
[13] = Clearance in dog at 10 mg/kg, po; assay type: ADME, organism-based, Canis lupus familiaris; conditions: in vivo
[14] = Cmax in rat at 10 mg/kg, po; assay type: ADME, organism-based; parameters: route oral, dose 10 mg/kg; conditions: in vivo
[15] = Clearance in cynomolgus monkey at 7 mg/kg, po; assay type: ADME, organism-based, Macaca fascicularis; conditions: in vivo
[16] = AUC (0 to 24 hrs) in rat at 10 mg/kg, po; assay type: ADME, organism-based; parameters: time < 24 hr, route oral, dose 10 mg/kg; conditions: in vivo
[17] = Oral bioavailability in rat at 10 mg/kg; assay type: ADME, organism-based; conditions: in vivo
[18] = Oral bioavailability in cynomolgus monkey at 7 mg/kg; assay type: ADME, organism-based, Macaca fascicularis; conditions: in vivo
[19] = Half life in human liver microsomes; assay type: ADME, Microsome
[20] = Volume of distribution at steady state in dog at 10 mg/kg, po; assay type: ADME, organism-based, Canis lupus familiaris; conditions: in vivo
[21] = Half life in dog liver microsomes; assay type: ADME, Canis lupus familiaris, Microsome
[22] = Cmax in dog at 10 mg/kg, po; assay type: ADME, organism-based, Canis lupus familiaris; parameters: route oral, dose 10 mg/kg; conditions: in vivo
[23] = Oral bioavailability in dog at 10 mg/kg; assay type: ADME, organism-based, Canis lupus familiaris; conditions: in vivo
[24] = AUC (0 to 24 hrs) in dog at 10 mg/kg, po; assay type: ADME, organism-based, Canis lupus familiaris; parameters: time < 24 hr, route oral, dose 10 mg/kg; conditions: in vivo
[25] = Half life in rat liver microsomes; assay type: ADME, Microsome
[26] = Clearance in rat at 10 mg/kg, po; assay type: ADME, organism-based; conditions: in vivo
[27] = AUC (0 to 24 hrs) in cynomolgus monkey at 7 mg/kg, po; assay type: ADME, organism-based, Macaca fascicularis; parameters: time < 24 hr, route oral, dose 7 mg/kg; conditions: in vivo
[28] = Volume of distribution at steady state in rat at 10 mg/kg, po; assay type: ADME, organism-based; conditions: in vivo
[29] = Half life in monkey liver microsomes; assay type: ADME, Macaca mulatta, Microsome; conditions: rhesus monkey

Row | remaining at 10 min [1] | AUC(0-t) at 24 h [2] | Vdss [3] | remaining at 10 min [4] | Cmax [5] | bioavailability [6] | remaining at 10 min [7] | CL/F [8] | Structure (SMILES) | further results
1 | 95% | 26 µM·h | 3.4 L/kg | 90% | 6.1 µM | 41% | 99% | 5.3 mL/min/kg | [2H]C([2H])([2H])NC(=O)c1nnc(NC(=O)C2CC2)cc1Nc1cccc(-c2cnc(C(C)(C)O)cn2)c1OC | –
2 | – | – | – | – | – | – | – | – | [2H]C([2H])([2H])NC(=O)c1nnc(NC(=O)C2CC2)cc1Nc1cccc(-c2ncc(C(C)(C)O)cn2)c1OC | solubility [9]: 14 µg/mL (≈ 29.1 µM)
3 | 98% | – | – | 100% | – | – | 89% | – | [2H]C([2H])([2H])NC(=O)c1nnc(NC(=O)C2CC2)cc1Nc1cccc(-c2ncn(C)n2)c1OC [DEUCRAVACITINIB] | –
4 | 79% | – | – | 34% | – | – | 42% | – | [2H]C([2H])([2H])NC(=O)c1nnc(NC(=O)C2CC2)cc1Nc1cccc(-c2ccccn2)c1OC | –
5 | 60% | – | – | 8% | – | – | 0% | – | [2H]C([2H])([2H])NC(=O)c1nnc(NC(=O)C2CC2)cc1Nc1cccc(-c2cccnn2)c1OC | –
6 | 100% | 15 µM·h | 2.3 L/kg | 77% | 5.4 µM | 31% | 78% | 7.9 mL/min/kg | [2H]C([2H])([2H])NC(=O)c1nnc(NC(=O)C2CC2)cc1Nc1cccc(-c2ncccn2)c1OC | solubility [9]: < 1 µg/mL
7 | – | 65 µM·h | 1.1 L/kg | – | 13 µM | 62% | – | 3 mL/min/kg | [2H]C([2H])([2H])NC(=O)c1cnc(NC(=O)C2CC2)cc1Nc1cccc(-c2ncc(F)cn2)c1OC [BMS-986202] | Vdss [10]: 7 L/kg; Cmax [11]: 11 µM; half-life [12]: > 120 min; CL/F [13]: 1.8 mL/min/kg; Cmax [14]: 13 µM; CL/F [15]: 2.3 mL/min/kg; AUC(0-t) at 24 h [16]: 77 µM·h; bioavailability [17]: 72%; bioavailability [18]: 100%; half-life [19]: > 120 min; Vdss [20]: 1.5 L/kg; half-life [21]: 89 min; Cmax [22]: 14 µM; bioavailability [23]: 100%; AUC(0-t) at 24 h [24]: 126 µM·h; half-life [25]: > 120 min; CL/F [26]: 3.6 mL/min/kg; AUC(0-t) at 24 h [27]: 130 µM·h; Vdss [28]: 1.1 L/kg; half-life [29]: > 120 min
8 | – | – | – | – | – | – | – | – | [2H]C([2H])([2H])NC(=O)c1cnc(NC(=O)C2CC2)cc1Nc1cccc(-c2ncccn2)c1OC | solubility [9]: 32 µg/mL (≈ 75.9 µM)
9 | – | 19 µM·h | 1.5 L/kg | – | 7.8 µM | 43% | – | 7.6 mL/min/kg | [2H]C([2H])([2H])NC(=O)c1nnc(NC(=O)C2CC2)cc1Nc1cccc(-c2cnc(C(=O)N(C)C)cn2)c1OC | –
10 | 58% | – | – | 1% | – | – | 1% | – | [2H]C([2H])([2H])NC(=O)c1nnc(NC(=O)C2CC2)cc1Nc1cccc(-c2cnccn2)c1OC | –
11 | 48% | – | – | 3% | – | – | 3% | – | [2H]C([2H])([2H])NC(=O)c1nnc(NC(=O)C2CC2)cc1Nc1cccc(-c2ccncn2)c1OC | –
